This passage reports IC50, Activity and selectivity ratio results from ChEMBL document CHEMBL4152199, “Discovery of 6-chloro-2-(propylthio)-8,9-dihydro-7H-purines containing a carboxamide moiety as potential selective anti-lung cancer agents” (Eur J Med Chem, 2018).

As a reminder, the IC50 is the point on the concentration scale where inhibition reaches its midpoint. Higher therefore signals lower potency.

Active and inactive are the calls of the source. The calls are words filed in the database; no cut-off is given here.

Data set [1] has as its system A549. Nature of the data set: Antiproliferative activity against human A549 cells after 72 hrs by MTT assay. The format is functional, cell-based. Particulars: A549, 72 h. For orientation: Tetrazolium assays rely on reduction of a dye to a coloured formazan, in cell work by metabolically active cells.
A further data set concerns MGC-803. Nature of the data set: Antiproliferative activity against human MGC803 cells after 72 hrs by MTT assay. The format is functional, cell-based. The following applies: MGC-803, 72 h.
In the next data set the test system is PC-3. Nature of the data set: Antiproliferative activity against human PC3 cells after 72 hrs by MTT assay. The class given is functional, cell-based. Particulars: PC-3, 72 h.
Another data set relates to TE-1. Nature of the data set: Antiproliferative activity against human TE1 cells after 72 hrs by MTT assay. The class given is functional, cell-based. The following applies: TE-1, 72 h.
Another data set deals with GES1. Nature of the data set: Antiproliferative activity against human GES-1 cells after 72 hrs by MTT assay. The format is cell-based. Particulars: GES1, 72 h.
Data set [2] relates to A549. Nature of the data set: Antimigratory activity in human A549 cells after 72 hrs by inverted microscopic based wound healing assay. The class given is functional, cell-based.
Data set [3] in a line: Selectivity index, ratio of IC50 for human GES-1 cells to IC50 for human A549 cells. The format is toxicity. The following applies: GES-1 cells versus A549 cells, read-out: Ratio IC50.
The subject of data set [4] is A549. Nature of the data set: Anticlonogenic activity against human A549 cells at 1 uM after 10 days by crystal violet staining based assay relative to control. The format is functional.
Data set [5] relates to A549. Nature of the data set: Anticlonogenic activity against human A549 cells after 10 days by crystal violet staining based assay. The class given is functional, cell-based.
Data set [6] has as its system A549. Nature of the data set: Induction of apoptosis in human A549 cells assessed as induction of apoptotic bodies at 2 uM after 72 hrs by Hoechst 33258 staining based fluorescence microscopic method. The format is functional, cell-based.
The test system of data set [7] is A549. Nature of the data set: Induction of apoptosis in human A549 cells assessed as cell rounding at 2 uM after 72 hrs by Hoechst 33258 staining based fluorescence microscopic method. The format is functional.
Data set [8] has as its system A549. Nature of the data set: Induction of apoptosis in human A549 cells assessed as chromatin shrinkage at 2 uM after 72 hrs by Hoechst 33258 staining based fluorescence microscopic method. The class given is functional, cell-based.
The test system of data set [9] is A549. Nature of the data set: Induction of apoptosis in human A549 cells after 72 hrs by Annexin-V-FITC/propidium iodide staining based flow cytometric analysis. The class given is functional, cell-based. In general terms: Flow cytometry measures light scatter and fluorescence of single cells or particles in a stream.
Data set [10] concerns A549. Nature of the data set: Induction of apoptosis in human A549 cells assessed as reduction in Bcl-2 level up to 2 uM after 72 hrs by Western blot analysis. The format is functional, cell-based. (In general: Immunoblotting shows a protein as a band on a membrane.)
The subject of data set [11] is A549. Nature of the data set: Induction of apoptosis in human A549 cells assessed as increase in Bax level up to 2 uM after 72 hrs by Western blot analysis. The class given is functional, cell-based.
Data set [12] deals with A549. Nature of the data set: Antimigratory activity in human A549 cells after 72 hrs by Hoechst 33258 staining based transwell assay. The format is functional, cell-based.
The subject of data set [13] is A549. Nature of the data set: Antiinvasive activity in human A549 cells after 72 hrs by Hoechst 33258 staining based matrigel assay. The format is functional, cell-based.
The test system of data set [14] is A549. Nature of the data set: Up regulation of E-cadherin expression in human A549 cells up to 2 uM after 72 hrs by Western blot analysis. The class given is functional, cell-based.
In data set [15] the test system is A549. Nature of the data set: Downregulation of N-cadherin expression in human A549 cells up to 2 uM after 72 hrs by Western blot analysis. The format is functional, cell-based.
The test system of data set [16] is A549. Nature of the data set: Downregulation of vimentin expression in human A549 cells up to 2 uM after 72 hrs by Western blot analysis. The format is functional, cell-based.

As for `CCCSc1nc(Cl)c2c(n1)N(Cc1ccccc1)C(C(=O)NCCc1ccccc1)N2` (configuration not stated), the concentration for half-maximal inhibition (IC50) in the data set on A549 [1] was found to be 36.7 µM; in the data set on MGC-803, 46.9 µM; in the data set with PC-3, 41.3 µM; in the data set with TE-1 it was 31.2 µM.

As to `O=c1[nH]cc(F)c(=O)[nH]1` [FLUOROURACIL], the 50% inhibitory concentration (IC50) in the data set on A549 [1] turned out to be 13.2 µM; with MGC-803, 8.66 µM; in the data set with PC-3, 12.3 µM; in the data set on TE-1, 16.5 µM; in the data set on GES1, 12.5 µM.

Take `CCCSc1nc(Cl)c2c(n1)N(Cc1ccccc1)C(C(=O)OCC)N2` (configuration not stated): the 50% inhibitory concentration (IC50) in the data set with A549 [1] was 13.8 µM; in the data set on MGC-803 it was 18.5 µM; in the data set with PC-3, 62.5 µM; in the data set with TE-1 it was above 64 µM.

Regarding `CCCSc1nc(Cl)c2c(n1)N(Cc1ccccc1)C(C(=O)O)N2` (configuration not stated), the 50% inhibitory concentration (IC50) with A549 [1] was 10.7 µM; in the data set on MGC-803, above 64 µM; in the data set on PC-3 it was 49.2 µM; in the data set with TE-1, above 64 µM.

For the compound `CCCSc1nc(Cl)c2c(n1)N(Cc1ccccc1)C(C(=O)NCCCN1CCOCC1)N2` (configuration not stated), the half-inhibitory concentration (IC50) in the data set on A549 [1] was 42.2 µM; in the data set on MGC-803, above 64 µM; in the data set with PC-3, 45.1 µM; in the data set with TE-1, 51.1 µM.

On to `CCCSc1nc(Cl)c2c(n1)N(Cc1ccccc1)C(C(=O)N1CCN(C(=O)OC(C)(C)C)CC1)N2` (configuration not stated), for which the 50% inhibitory concentration (IC50) in the data set on A549 [1] was 29 µM; in the data set with MGC-803, 32 µM; in the data set with PC-3 it was 47.1 µM; in the data set on TE-1 it was 31.2 µM.

With `CCCSc1nc(Cl)c2c(n1)N(Cc1ccccc1)C(C(=O)NCCNC(=O)OC(C)(C)C)N2` (configuration not stated), the 50% inhibitory concentration (IC50) in the data set with A549 [1] was 53.2 µM; in the data set with MGC-803 it was above 64 µM; in the data set with PC-3 it was 29.7 µM; in the data set with TE-1, above 64 µM.

As to `CCCSc1nc(Cl)c2c(n1)N(CCNC(=O)OC(C)(C)C)C(C(=O)N1CCN(C)CC1)N2` (configuration not stated), the IC50 in the data set on A549 [1] was 12.4 µM; with MGC-803, 59.3 µM; with PC-3, above 64 µM; with TE-1 it was 51.8 µM.

On to `CCCSc1nc(Cl)c2c(n1)N(Cc1ccccc1)C(C(=O)N1CCSCC1)N2` (configuration not stated), for which the IC50 in the data set on A549 [1] was above 64 µM; in the data set with MGC-803 it was 31.3 µM; with PC-3, 47.9 µM; in the data set on TE-1 it was 47.8 µM.

With `CCCSc1nc(Cl)c2c(n1)N(Cc1ccccc1)C(C(=O)NCCc1c[nH]c3ccccc13)N2` (configuration not stated), the 50% inhibitory concentration (IC50) in the data set with A549 [1] was 48.8 µM; in the data set with MGC-803, 27 µM; with PC-3 it was above 64 µM; with TE-1, 30 µM.

For the compound `CCCSc1nc(Cl)c2c(n1)N(Cc1cccs1)C(C(=O)N1CCN(C)CC1)N2` (configuration not stated), the IC50 with A549 [1] came to 6.42 µM; with MGC-803, 62.3 µM; with PC-3, 5.02 µM; with TE-1 it was 39.4 µM.

For `CCCSc1nc(Cl)c2c(n1)N(Cc1ccccc1)C(C(=O)N1CCN(Cc3ccccc3)CC1)N2` (configuration not stated), the IC50 in the data set with A549 [1] came to 14.4 µM; in the data set with MGC-803 it was 51.2 µM; with PC-3 it was 57.3 µM; in the data set with TE-1 it was 48.2 µM.

With `CCCSc1nc(Cl)c2c(n1)N(Cc1ccccc1)C(C(=O)N1CCOCC1)N2` (configuration not stated), the concentration for half-maximal inhibition (IC50) was above 64 µM in the data set with A549 [1], 30.2 µM with MGC-803, 53.9 µM with PC-3 and 43.7 µM in the data set on TE-1.

As to `CCCSc1nc(Cl)c2c(n1)N(Cc1ccco1)C(C(=O)N1CCN(C)CC1)N2` (configuration not stated), the half-inhibitory concentration (IC50) was 13.6 µM with A549 [1], 53.8 µM in the data set on MGC-803, 11.3 µM with PC-3 and 35 µM in the data set on TE-1.

For the compound `CCCSc1nc(Cl)c2c(n1)N(Cc1ccccc1)C(C(=O)NCCCc1ccccc1)N2` (configuration not stated), the IC50 in the data set with A549 [1] was 9.43 µM; with MGC-803, 16.9 µM; in the data set on PC-3 it was 12.7 µM; in the data set with TE-1 it was 22.9 µM.

`CCCSc1nc(Cl)c2c(n1)N(CC1CCCCC1)C(C(=O)N1CCN(C)CC1)N2` (configuration not stated): the 50% inhibitory concentration (IC50) in the data set with A549 [1] is 13.2 µM; with MGC-803, above 64 µM; with PC-3 it was 12.8 µM; in the data set with TE-1, above 64 µM.

For the compound `CCCSc1nc(Cl)c2c(n1)N(Cc1ccccc1)C(C(=O)N1CCN(C)CC1)N2` (configuration not stated), the Activity result in the data set on A549 [2] is “Dose-dependent effect”; in the data set on A549 [4] it was 57%; in the data set with A549 [5], “Dose-dependent effect”; with A549 [9] it was “Dose-dependent effect”; in the data set with A549 [12], “Dose-dependent effect”; with A549 [13], “Dose-dependent effect”. For the same compound, the IC50 is 2.8 µM in the data set on A549 [1]; above 64 µM in the data set with MGC-803; 29.8 µM in the data set with PC-3; 42.5 µM in the data set on TE-1; 303 µM in the data set with GES1. Further, the selectivity ratio in data set [3] was determined as 108. Also, the result in the data set on A549 [6], in the data set with A549 [7], in the data set on A549 [8], in the data set on A549 [10], in the data set on A549 [11] and in the data set on A549 [14] was Active. The outcome in the data set with A549 [15] and in the data set with A549 [16] was Active.

Regarding `CCCSc1nc(Cl)c2c(n1)N(Cc1ccccc1)C(C(=O)Nc1ccccc1)N2` (configuration not stated), the IC50 with A549 [1] was 50.2 µM; in the data set on MGC-803, 58.4 µM; in the data set on PC-3, above 64 µM; with TE-1, above 64 µM.

For the compound `CCCSc1nc(Cl)c2c(n1)N(CCOC)C(C(=O)N1CCN(C)CC1)N2` (configuration not stated), the 50% inhibitory concentration (IC50) in the data set with A549 [1] is 61.8 µM; in the data set on MGC-803, above 64 µM; in the data set on PC-3, 62.7 µM; in the data set on TE-1, above 64 µM.

Regarding `CCCSc1nc(Cl)c2c(n1)N(Cc1ccccc1)C(C(=O)NCC(C)C)N2` (configuration not stated), the IC50 in the data set on A549 [1] is 48.2 µM; in the data set with MGC-803 it was 58.4 µM; in the data set with PC-3, above 64 µM; with TE-1, 46.6 µM.
